From patent US12440466B2, “Fatty acid derivatives for treating non-alcoholic steatohepatitis” (BASF AS, priority 2017, dated 2025)
Marks after values point to notes of the source that are not given here.

Key:
[1] = test system: STAM (model) mice; assay: Fibrosis area by Sirius Red staining, STAM model; type: in vivo, mouse; conditions: Sirius Red positive area, 6 weeks treatment, Compound A 37 mg/kg/day oral gavage
Excerpt: In Biological Example 8, pathogen-free 15-day-pregnant C57BL/6 mice were obtained from Charles River Laboratories in Japan Inc. (Kanagawa, Japan). NASH was established in male mice by a single subcutaneous injection of streptozotocin (STZ) (Sigma, USA) after birth and feeding with a high fat diet (HFD; CLEA) Japan, Japan) ad libitum after 4 weeks of age (day 28±2). Mice were randomised into 3 groups of 8 mice at 6 weeks of age the day before the start of treatment: vehicle (saline), Compound A and telmisartan (positive control). Treatment with Compound A at a dose of 37 mg/kg bw per day via oral gavage in conjunction with a high-fat diet was given for 6 weeks before sacrifice. NAFLD activity score (NAS) was calculated according to standardised criteria and fibrosis area was assessed via Sirius Red staining.

[2] = test system: CDAA/high-fat fed mice; assay: Hepatic fibrosis by Sirius Red (SR) morphometry, CDAA/high-fat diet mouse model; type: in vivo
Experimental: In Biological Examples 1-7, studies were performed in male C56BL/6J mice (9 weeks old). Mice were fed either choline-sufficient (CS) or choline deficient high-fat diets (31% total calories; “CDAA/high-fat”). The NASH inducing diet was instigated 6 weeks prior to the commencement of treatment in order to design the study as a treatment/reversal set-up rather than prophylaxis.
In Biological Examples 1-5, mice were divided into 6 experimental groups (n=9 per group) and fed either CS or CDAA/high-fat diets. […] Hepatic fibrosis was assessed by both measurement of hydroxyproline (HYP) content and Sirius Red (SR) morphometry. Fibrosis, inflammation and metabolism related transcripts levels were measured by quantitative real-time polymerase chain reaction (qPCR).
In order to more accurately quantify the amount location and functional relevance of the hepatic fibrosis, Sirius Red (SR) morphometry was performed. In contrast to examples 1 and 2 where biochemical assessment of hydroxyproline (HYP) content measuring collagen in the large vessels was used, SR morphometry quantifies the more functionally relevant sinusoidal collagen deposits. 10 areas per slide were measured using 100× magnification.

[3] = test system: genes regulating extracellular matrix (ECM) stability or fibrolysis; assay: Hepatic ECM stability/fibrolysis gene expression by RNA sequencing in ob/ob AMLN mice; type: in vivo, mouse; conditions: 4 weeks, Compound A 112 mg/kg, pioglitazone 30 mg/kg
Experimental: (§1) Obese diet-induced B6.V-Lepob/Jrj mice (ob/ob) are consistently fibrosis (liver) prone when cholesterol (2%), 40% fat (containing 18% trans-fatty acids) and 20% fructose are added to a high-caloric diet (i.e., AMLN high-fat diet). ob/ob mice on AMLN diet (termed ‘ob/ob AMLN mice’) develop steatohepatitis and fibrosis within a shorter timeframe ([…]) compared with wild-type C57BL/6 mice (AMLN mice) fed the same diet. ob/ob AMLN mice provide an obese diet-induced model of NASH that also allows the study of effects on glycemic control. Development of NASH in the ob/ob AMLN model is confirmed by biopsy.
In Biological Examples 10-12, 15, and 19, studies were performed in male ob/ob mice (5 weeks old) fed an AMLN high-fat diet for 15 weeks, then randomized into 3 groups (n=10 per group) to receive either 112 mg/kg bw per day of Compound A via diet, 30 mg/kg bw per day pioglitazone via diet or no treatment (vehicle) for a further 4 weeks. An oral glucose tolerance test (OGTT) was performed at week 3. Hepatic fibrosis was assessed via measurements of hepatic fibrogenic/fibrolytic gene expression by RNA sequencing at 4 weeks.

[4] = test system: col1A1; assay: Hepatic col1A1 content by quantitative IHC in ob/ob AMLN mice; type: in vivo, mouse; conditions: 8 weeks
Experimental: as §1
(§2) In Biological Examples 10, 13-14, and 16-18, studies were performed in male ob/ob mice (5 weeks old) fed an AMLN high-fat diet for 18 weeks, then randomized into 6 groups (n=10 per group) to receive either Compound A (at 3 different daily doses, 45 mg/kg, 90 mg/kg or 135 mg/kg) via diet, 30 mg/kg bw per day obeticholic acid (OCA) via diet, or no treatment (vehicle) for a further 8 weeks. Assessment of NASH related parameters and fibrosis was made at study end by quantitative immune histochemistry (IHC) measurements.

[5] = test system: APOE*3Leiden.CETP mice; assay: Hepatocellular hypertrophy grading in APOE*3Leiden.CETP double transgenic mice; type: in vivo, mouse; conditions: APOE*3Leiden.CETP mice on high fat/cholesterol diet; 0.3 mmol/kg bw per day by gavage; 20 weeks
Excerpt: The APOE*3Leiden.CETP double transgenic mouse expresses a variant of the human apolipoprotein E3 (APOE3), the APOE*3Leiden, in addition to the human apolipoprotein C1 (APOC1) and CETP. […] By increasing the cholesterol content of the diet in this model, all the characteristics of human NASH develop.
In one study (using 1% cholesterol w/w), after a 3 weeks run-in period low-responder mice (20% of total) were removed from the study and the remaining mice were sub-divided into 4 groups of 12 mice each (+5 in the control group), matched for plasma cholesterol, triglycerides, blood glucose, body weight and age (t=0) and treatment was started. The mice received a daily gavage between 07hr00 and 10hr00 with either Compound A at 0.3 mmol/kg bw per day, the comparison compound Compound N (0.3 mmol/kg bw per day), rosiglitazone (13 mg/kg bw per day) or control (corn oil). After 20 weeks of treatment mice were sacrificed by CO2 asphyxiation, the liver was collected and the level of hepatocellular hypertrophy was graded.

[6] = test system: ob/ob AMLN mice; assay: Plasma triglyceride and total cholesterol levels in ob/ob AMLN mice; type: in vivo, mouse; conditions: 8 weeks
Experimental: as §1, §2

[7] = test system: ob/ob AMLN mice; assay: Plasma ALT and AST (hepatocellular damage) in ob/ob AMLN mice; type: in vivo, mouse; conditions: 8 weeks
Experimental: as §1, §2
To assess the effects of Compound A and pioglitazone on hepatocellular injury or damage in ob/ob AMLN mice, plasma alanine aminotransferase (ALT) and aspartate transaminase (AST) were measured after 8 weeks of administration.

CC/C=C\C/C=C\C/C=C\C/C=C\C/C=C\CCCCOC(CC)C(=O)O (stereo not shown) [Compound A, 2-((5Z,8Z,11Z,14Z,17Z)-icosa-5,8,11,14,17-pentaenyloxy)butanoic acid]
Fibrosis area (%) [1]: 0.79% | Fibrosis area (mean %) ([2]; HD 0.3 mmol/kg bw per day): 1.56* % | Fibrosis area (mean %) ([2]; LD 0.15 mmol/kg bw/day): 0.76*** % | hepatic expression of LOX-like 2 (LOXL2) [3]: significantly reduced | hepatic expression of LOXL1 [3]: significantly reduced | hepatic expression of TIMP1 [3]: significantly reduced | hepatic expression of lysyl-oxidase (LOX) [3]: significantly reduced | col1A1 content compared with pre-biopsy content ([4]; Compound A 45 mg/kg): trend towards decreased col1A1 content | col1A1 levels as a percentage of total surface area ([4]; Compound A 45 mg/kg): not statistically significant | col1A1 levels as a percentage of total surface area ([4]; Compound A 90 mg/kg): significant reduction | total col1A1 content ([4]; Compound A 90 mg/kg): reduced | col1A1 content compared with pre-biopsy content ([4]; Compound A 90 mg/kg, decrease, p<0.005): statistically significant | col1A1 content compared with pre-biopsy content ([4]; Compound A 135 mg/kg): trend towards decreased col1A1 content | col1A1 levels as a percentage of total surface area ([4]; Compound A 135 mg/kg): not statistically significant | total col1A1 content ([4]; Compound A 135 mg/kg): reduced | Decrease in hypertrophy vs. control (%) [5]: 83* % | Hepatocellular hypertrophy [5]: 8.9 ± 5.9 | plasma total cholesterol levels ([6]; Compound A 90 mg/kg): comparable reductions | plasma triglyceride levels ([6]; Compound A 90 mg/kg): comparable reductions | plasma total cholesterol levels ([6]; Compound A 135 mg/kg): comparable reductions | plasma triglyceride levels ([6]; Compound A 135 mg/kg): comparable reductions | plasma ALT ([7]; Compound A 90 mg/kg, p<0.01): marked and significant reduction | plasma AST ([7]; Compound A 90 mg/kg, p<0.05): significantly reduced | plasma ALT ([7]; Compound A 135 mg/kg, p<0.001): marked and significant reduction | plasma AST ([7]; Compound A 135 mg/kg, p<0.01): significantly reduced
